Among the data in patent US20080234318A1, “Chemical Compounds” (priority 2005, published 2008) are IC50 values, retold here.

This experiment relates to HIV-1. Put plainly: HOS HIV-1 infectivity assay. The class given is cell-based. The following applies: Human immunodeficiency virus 1, BAL / IIIB, HOS cells expressing hCXCR4/hCCR5/hCD4/pHIV-LTR-luciferase, virus strain (Ba-L or IIIB) not given, read-out: Activity Level. The procedure:
Compounds were profiled against two HIV-1 viruses, the M-tropic (CCR5 utilizing) Ba-L strain and the T-tropic (CXCR4 utilizing) IIIB strain. Both viruses were propagated in human peripheral blood lymphocytes. Compounds were tested for there ability to block infection of the HOS cell line (expressing hCXCR4/hCCR5/hCD4/pHIV-LTR-luciferase) by either HIV-1 Ba-L or HIV-1 IIIB. Compound cytotoxicity was also examined in the absence of virus addition.
HOS cells (expressing hCXCR4/hCCR5/hCD4/pHIV-LTR-luciferase) were harvested and diluted in Dulbeccos modified Eagles media supplemented with 2% FCS and non-essential amino acid to a concentration of 60,000 cells/ml. The cells were plated into 96-well plates (100 ul per well) and the plates were placed in a tissue culture incubator (37° C.; 5% CO2/95% air) for a period of 24h.
Subsequently, 50 ul of the desired drug solution (4 times the final concentration) was added to each well and the plates were returned to the tissue culture incubator (37° C.; 5% CO2/95% air) for 1h. Following this incubation 50 ul of diluted virus was added to each well (approximately 2 million RLU per well of virus). The plates were returned to the tissue culture incubator (37° C.; 5% CO2/95% air) and were incubated for a further 96h.
Following this incubation the endpoint for the virally infected cultures was quantified following addition of Steady-Glo Luciferase assay system reagent (Promega, Madison, Wis.). Cell viability or non-infected cultures was measured using a CellTiter-Glo luminescent cell viability assay system (Promega, Madison, Wis.). All luminescent readouts are performed on a Topcount luminescence detector (Packard, Meridien, Conn.).
For the molecule `CC(C)NCc1c(CN(C)[C@H]2CCCc3cccnc32)nc2cccc(N3CCN(C)CC3)n12` [Example 23, (8S)—N-Methyl-N-{[3-{[(1-methylethyl)amino]methyl}-5-(4-methyl-1-piperazinyl)imidazo[1,2-a]pyridin-2-yl]methyl}-5,6,7,8-tetrahydro-8-quinolinamine], the IC50 is under 100 nM. Under `CN1CCN(c2cccc3nc(CN(C)[C@H]4CCCc5cccnc54)c(CNC(=O)Nc4ccc(N(C)C)cc4)n23)CC1` [Example 42, N-[4-(Dimethylamino)phenyl]-N′-{[5-(4-methyl-1-piperazinyl)-2-({methyl[(8S)-5,6,7,8-tetrahydro-8-quinolinyl]amino}methyl)imidazo[1,2-a]pyridin-3-yl]methyl}urea] stands under 100 nM; under `CCC(C)C(=O)NCc1c(CN(C)[C@H]2CCCc3cccnc32)nc2cccc(N3CCN(C)CC3)n12` (stereo partly drawn) [Example 28, 2-Methyl-N-{[5-(4-methyl-1-piperazinyl)-2-({methyl[(8S)-5,6,7,8-tetrahydro-8-quinolinyl]amino}methyl)imidazo[1,2-a]pyridin-3-yl]methyl}butanamide], under 100 nM; under `CC(=O)NCc1c(CN(C)[C@H]2CCCc3cccnc32)nc2cccc(N3CCN(C)CC3)n12` [Example 25, N-{[5-(4-Methyl-1-piperazinyl)-2-({methyl[(8S)-5,6,7,8-tetrahydro-8-quinolinyl]amino}methyl)imidazo[1,2-a]pyridin-3-yl]methyl}acetamide], under 100 nM.

As to `CCC(=O)NCc1c(CN(C)[C@H]2CCCc3cccnc32)nc2cccc(N3CCN(C)CC3)n12` [Example 26, N-{[5-(4-Methyl-1-piperazinyl)-2-({methyl[(8S)-5,6,7,8-tetrahydro-8-quinolinyl]amino}methyl)imidazo[1,2-a]pyridin-3-yl]methyl}propanamide], the IC50 is under 100 nM.

With `CN1CCN(c2cccc3nc(CN(C)[C@H]4CCCc5cccnc54)c(CN(CCO)CCO)n23)CC1` [Example 13, 2,2′-({[5-(4-Methyl-1-piperazinyl)-2-({methyl[(8S)-5,6,7,8-tetrahydro-8-quinolinyl]amino}methyl)imidazo[1,2-a]pyridin-3-yl]methyl}imino)diethanol], the IC50 is under 100 nM. The figure for `CN1CCN(c2cccc3nc(CN(C)[C@H]4CCCc5cccnc54)c(CN)n23)CC1` [Example 24, (8S)—N-{[3-(Aminomethyl)-5-(4-methyl-1-piperazinyl)imidazo[1,2-a]pyridin-2-yl]methyl}-N-methyl-5,6,7,8-tetrahydro-8-quinolinamine] is under 100 nM. In the case of `CN1CCN(c2cccc3nc(CN(C)[C@H]4CCCc5cccnc54)c(CNC(=O)Nc4ccccc4)n23)CC1` [Example 41, N-{[5-(4-Methyl-1-piperazinyl)-2-({methyl[(8S)-5,6,7,8-tetrahydro-8-quinolinyl]amino}methyl)imidazo[1,2-a]pyridin-3-yl]methyl}-N′-phenylurea], the IC50 is under 100 nM. The figure for `CCNC(=O)NCc1c(CN(C)[C@H]2CCCc3cccnc32)nc2cccc(N3CCN(C)CC3)n12` [Example 39, N-Ethyl-N′-{[5-(4-methyl-1-piperazinyl)-2-({methyl[(8S)-5,6,7,8-tetrahydro-8-quinolinyl]amino}methyl)imidazo[1,2-a]pyridin-3-yl]methyl}urea] is under 100 nM.

Turning to `CN1CCN(c2cccc3nc(CN(C)[C@H]4CCCc5cccnc54)c(CNC(=O)OCc4ccccc4)n23)CC1` [Example 33, Phenylmethyl {[5-(4-methyl-1-piperazinyl)-2-({methyl[(8S)-5,6,7,8-tetrahydro-8-quinolinyl]amino}methyl)imidazor[1,2-a]pyridin-3-yl]methyl}carbamate], the IC50 was under 100 nM.

On to `CN1CCN(c2cccc3nc(CN(C)[C@H]4CCCc5cccnc54)c(CNC(=O)c4ccccc4)n23)CC1` [Example 29, 2 N-{[5-(4-Methyl-1-piperazinyl)-2-({methyl[(8S)-5,6,7,8-tetrahydro-8-quinolinyl]amino}methyl)imidazo[1,2-a]pyridin-3-yl]methyl}benzamide], for which the IC50 is under 100 nM.

For `CC(C)NC(=O)NCc1c(CN(C)[C@H]2CCCc3cccnc32)nc2cccc(N3CCN(C)CC3)n12` [Example 40, N-(1-Methylethyl)-N′-{[5-(4-methyl-1-piperazinyl)-2-({methyl[(8S)-5,6,7,8-tetrahydro-8-quinolinyl]amino}methyl)imidazo[1,2-a]pyridin-3-yl]methyl}urea], the IC50 is under 100 nM. Under `CN1CCN(c2cccc3nc(CN(C)[C@H]4CCCc5cccnc54)c(CNS(=O)(=O)Cc4ccccc4)n23)CC1` [Example 38, N-{[5-(4-Methyl-1-piperazinyl)-2-({methyl[(8S)-5,6,7,8-tetrahydro-8-quinolinyl]amino}methyl)imidazo[1,2-a]pyridin-3-yl]methyl}-1-phenylmethanesulfonamide] stands under 100 nM.
